{"source": "patent US6951887B2", "about": "(The Research Foundation of State University of New York, priority 1998, dated 2005)", "key": {"HeLa cells": {"tested_on": "HeLa cells", "test": "killing of HeLa cells with or without dichloroacetate (DCA)", "format": "cell-based", "conditions": "compound ca. twofold above threshold killing dose plus 5 mM DCA", "method": "HeLa cells were plated at moderate densities and allowed to attach and grow for ca. 24 hours in a series of wells in a multi-well tissue culture plate. To individual wells of the first subset (control) were added bis-acetyl lipoate, mono-acetyl lipoate or bis-benzoyl lipoate—each at ca. twofold above the threshold killing dose (EXAMPLE 11). To an equivalent (experimental) subset of wells were added these same compounds at the same dose together with the simultaneous addition of DCA to 5 mM final concentration."}, "Saos 2 (Bone)": {"tested_on": "Saos 2 (Bone)", "test": "killing of cultured cells, Saos 2", "format": "cell-based", "set-up": "key: “+” indicates that the cells were killed by treatment; “−” indicates that they were not; “+/−” indicates a slow marginal response seen only in a few special cases with fibroblasts experimentally transformed by introduction of the ras oncogene", "conditions": "compound at two to fourfold above its threshold killing concentration", "excerpt": "(§1) Table 1: Summarized are the responses of cells in culture to killing by example members of the family of blocked lipoate derivatives that are the object of this invention as well as one control compound (dihydroxyoctanoic acid). At right is indicated the specific cell line followed by the tissue of origin of the cell line. Across the top are listed the specific compounds tested. Each blocked lipoate derivative was used at two to fourfold above its threshold killing concentration. [These concentrations range form 0.15 mM (60 ug/ml or 60 mg/kg) to 2.5 mM (800 ug/ml or 800 mg/kg) (see EXAMPLE 11).] […] “+/−” indicates a slow marginal response seen only in a few special cases with fibroblasts experimentally transformed by introduction of the ras oncogene (EXAMPLE 10).\n(§2) First, each cell type to be tested was plated at low densities in the wells of a standard 6×24 well tissue culture plate. (Multiple wells are seeded for each cell type.)\n(§3) Second, the cells were allowed to grow to moderate densities. Transformed cells are in contact and non-transformed cells are contact-inhibited under these conditions.\n(§4) Third, the lipoate derivatives to be tested were added to individual wells. In these experiments each compound was added at two to fourfold above the threshold killing concentration for cancer cells (EXAMPLE 11).\n(§5) Fourth, cells were monitored over the next several days."}, "MDCK (Kidney)": {"tested_on": "MDCK (Kidney)", "test": "killing of cultured cells, MDCK", "format": "cell-based", "conditions": "120 ug/ml, ca. 48 hours", "excerpt": "as §1, §2, §3, §4, §5"}, "HeLa (Cervix)": {"tested_on": "HeLa (Cervix)", "test": "killing of cultured cells, HeLa", "format": "cell-based", "set-up": "key to cells killed by treatment: “+” indicates that the cells were killed by treatment; “−” indicates that they were not; “+/−” indicates a slow marginal response seen only in a few special cases with fibroblasts experimentally transformed by introduction of the ras oncogene", "excerpt": "as §1, §2, §3, §4, §5"}, "LnCap (Prostate)": {"tested_on": "LnCap (Prostate)", "test": "killing of cultured cells, LnCap", "format": "cell-based", "set-up": "key: “+” indicates that the cells were killed by treatment; “−” indicates that they were not; “+/−” indicates a slow marginal response seen only in a few special cases with fibroblasts experimentally transformed by introduction of the ras oncogene", "conditions": "compound at two to fourfold above its threshold killing concentration", "excerpt": "as §1, §2, §3, §4, §5"}, "SW480 (Colon)": {"tested_on": "SW480 (Colon)", "test": "killing of cultured cells, SW480", "format": "cell-based", "set-up": "key: “+” indicates that the cells were killed by treatment; “−” indicates that they were not; “+/−” indicates a slow marginal response seen only in a few special cases with fibroblasts experimentally transformed by introduction of the ras oncogene", "conditions": "compound at two to fourfold above its threshold killing concentration", "excerpt": "as §1, §2, §3, §4, §5"}, "[1]": {"test": "nonspecific toxicity by intraperitoneal injection", "conditions": "C57/BL, mouse, in vivo, ip", "method": "(§6) (All studies described in this section were carried out by intraperitoneal (IP) injection into C57/BL mice.)"}, "C57/BL mice": {"tested_on": "C57/BL mice", "test": "nonspecific toxicity by intraperitoneal injection", "conditions": "mouse, in vivo, ip", "method": "as §6"}, "RD (Embryo)": {"tested_on": "RD (Embryo)", "test": "killing of cultured cells, RD", "format": "cell-based", "set-up": "key to cells killed by treatment: “+” indicates that the cells were killed by treatment; “−” indicates that they were not; “+/−” indicates a slow marginal response seen only in a few special cases with fibroblasts experimentally transformed by introduction of the ras oncogene", "excerpt": "as §1, §2, §3, §4, §5"}, "B-16 melanoma": {"tested_on": "B-16 melanoma", "test": "B-16 system, cells injected IP", "format": "in vivo, mouse", "conditions": "100 mg/kg IP twice a day, 16 days, B-16 cells IP in C57/BL mice", "excerpt": "The B-16 melanoma strain was introduced either subcutaneously or intraperitoneally into individuals of the C57/BL syngeneic mouse strain (7). When left untreated such mice develop massive tumors in the immediate area of injection as well as secondary metastases throughout the animal—including in the liver and the lungs. These malignant growths result in the early death of the animals. Moreover, the resulting malignant growths are made up of darkly pigmented malignant melanocytes—making their assessment convenient and highly reliable. We will henceforth refer to this as the “B-16 system”.\nFirst, a group of mice were injected IP with B-16 cells. The injected group was divided at random into two equal subsets. One subset (experimental) was injected IP twice a day with 100 mg/kg of the bis-benzoyl lipoate member of the compound class in 200 ul of 10% ethanol. [See EXAMPLES 3, 8 and 11 for descriptions of bis-benzoyl lipoate.] The second subset (control) was injected with 200 ul of 10% ethanol alone.\nAfter 16 days, the animals were examined—including by dissection where appropriate. The control animals had numerous, massive IP tumor masses."}, "cancer cells in culture": {"tested_on": "cancer cells in culture", "test": "threshold killing concentration and dose response in cultured cells", "format": "cell-based", "excerpt": "First, each compound killed cancer cells in culture at or above a relatively narrow, specific concentration range, but not below. The threshold concentrations given below represent the approximate center of this range which extended roughly two to threefold. […] Below these saturation ranges, sensitive cells survived and grew. They could be removed and replated to grow, apparently indefinitely, under these conditions. […] This was a highly unusual dose/response profile. The threshold killing concentrations (ranges) varied between individual compounds. Examples of these threshold killing concentrations were as follows: bis-benzoyl lipoate (EXAMPLE 3) 60 mg/liter (60 mg/kg), monoacetyl lipoate (EXAMPLE 4) 100 mg/liter (100 mg/kg); bis-acetyl lipoate (EXAMPLE 2) 600 mg/liter (600 mg/kg).\nThese changes were ultimately followed by cell death if treatment was continued. However, these morphological changes were reversed, and the cells recovered, if the lipoate derivative was removed during this initial exposure. As with the dose/response profile of the preceeding paragraph, this reversible induction of morphological change followed by commitment to cell death is highly idiosyncratic. The discovery that this behavior was shown by all tested members of the class of compounds that are the object of this invention was, again, very strong evidence that these compounds are, in fact, a functionally coherent class."}, "Hep G2": {"tested_on": "Hep G2", "test": "killing of cultured cells, Hep G2", "format": "cell-based", "set-up": "key to cells killed by treatment: “+” indicates that the cells were killed by treatment; “−” indicates that they were not; “+/−” indicates a slow marginal response seen only in a few special cases with fibroblasts experimentally transformed by introduction of the ras oncogene", "excerpt": "as §1, §2, §3, §4, §5"}}}
{"smiles": "O=C(O)CCCCC(CCSC(=O)c1ccccc1)SC(=O)c1ccccc1", "note": "(stereo not shown) [bis-benzoyl lipoate, 6,8-bisbenzoylmercaptooctanoic acid]", "values": [{"measurement": "speed of cell killing with DCA relative to compound alone", "setting": "HeLa cells", "value": "approximately twvice as rapidly"}, {"measurement": "cells killed by treatment", "setting": "Saos 2 (Bone)", "value": "+"}, {"measurement": "effect on normal (non-cancerous) kidney epithelial cell line (FIG. 1)", "setting": "MDCK (Kidney)", "value": "not detectably affected"}, {"measurement": "cells killed by treatment", "setting": "HeLa (Cervix); Cervix, compound at two to fourfold above its threshold killing concentration", "value": "+"}, {"measurement": "time by which all cancer cells are killed", "setting": "HeLa (Cervix); conditions of FIG. 3", "value": "48 to 60", "unit": "h"}, {"measurement": "cells killed by treatment", "setting": "LnCap (Prostate)", "value": "+"}, {"measurement": "cells killed by treatment", "setting": "SW480 (Colon)", "value": "+"}, {"measurement": "LD50", "setting": "[1]", "value": "~1000", "unit": "mg/kg"}, {"measurement": "maximum well-tolerated dose", "setting": "C57/BL mice", "value": "ca. 500 mg/kg"}, {"measurement": "cell killing, embryonic cancer cells (FIG. 1)", "setting": "RD (Embryo); 120 ug/ml, ca. 48 hours", "value": "efficiently killed"}, {"measurement": "cells killed by treatment", "setting": "RD (Embryo); RD, Embryo, compound at two to fourfold above its threshold killing concentration", "value": "+"}, {"measurement": "tumor mass relative to the control sample", "setting": "B-16 melanoma", "value": "30-50%"}, {"measurement": "effective dose in cell culture", "setting": "cancer cells in culture", "value": 60, "unit": "µg/mL"}, {"measurement": "threshold killing concentration", "setting": "cancer cells in culture; approximate center of a range extending two to threefold", "value": 60, "unit": "mg/L"}, {"measurement": "cell killing, liver cancer cells (FIG. 1)", "setting": "Hep G2; 120 ug/ml, ca. 48 hours", "value": "efficiently killed"}, {"measurement": "cells killed by treatment", "setting": "Hep G2; Hep G2, compound at two to fourfold above its threshold killing concentration", "value": "+"}]}
